44 molecules from patent publication US20230406853A1, “COVALENT CDK2-BINDING COMPOUNDS FOR THERAPEUTIC PURPOSES” (Umbra Therapeutics, Inc., priority 2021, published 2023) can be followed below.

Molecules are shown by their SMILES. pIC50: −log10 of the molar value. Some results are limits rather than exact numbers.

The test addresses CycE1-CDK2 (Homo sapiens, UniProt P24941). As to the kind of experiment: Cdk2 Enzymatic TR-FRET Assay. The settings on record: CDK2/CycE 5 nM, ATP 100 μM, 60 minutes pre-incubation with compound; read-out: CDK2 Kinase. Format: biochemical. An excerpt: A TR-FRET system was used to detect CycE1-CDK2 kinase activity. The assay used a Europium-labeled anti-phospho-Ser/Thr antibody and ULight™-labeled peptide substrate (eIF4E-binding protein 1). When CycE1-CDK2 phosphorylates the peptide the phosphorylated Thr is recognized by the Europium-labeled anti-phospho-Ser/Thr antibody. Upon excitation of the Europium donor fluorophore at 337 nm, energy is transferred to the ULight™ acceptor dye on the substrate, resulting in the emission of light at 665 nm. The fluorescent signal is proportional to the level of ULight™ peptide phosphorylation and to the kinase activity.
The stock solution was prepared as follows: • 1× Reaction buffer: 50 mM HEPES pH 7.5, 10 mM MgCl2, 0.5 mM TCEP, 0.01% Tween®20, 1 mM EGTA, 0.001% fatty acid free (faf)-BSA; • 1× Detection buffer: equilibrate the Detection buffer at RT for at least 20 minutes then dilute 10-fold the stock in water; • 4×ENZYME mix: CDK2/CycE enzyme (5 nM final concentration in kinase reaction) in 1× Reaction buffer; • 4×SUBSTRATE mix: 4E-BP substrate (50 nM final concentration in kinase reaction)+ATP (100 μM final concentration in kinase reaction) in 1× Reaction buffer • 2×STOP/DETECTION mix: EDTA (10 mM final concentration in assay)+Anti-Phosphate antibody (0.5 nM final concentration in assay) in 1× Detection buffer • Neutral Control: Assay with no inhibition (MAX activity) • Inhibitor Control: Assay with IC100 (1 mM) reference inhibitor JNJ7706621 (MIN activity)
The assay was assembled directly in a white, small volume, Proxiplate (PerkinElmer) as follows: • Step 1: Charge compounds=5 μL/well • Step 2: Charge kinase=2.5 μL/well→total volume 7.5 μL/well • The plate is sealed and incubated at room temperature for 60 minutes • Step 3: Substrate mix (substrate/ATP)=2.5 μL/well→total enzymatic reaction volume 10 μL/well • The plate is sealed and incubated at room temperature for 60 minutes • Step 4: Stop/Detection mix (EDTA/antibody)=10 μL/well→total volume 20 μL/well • The plate is sealed and incubated at room temperature for at least 2 hours and fluorescence signal is measured at PHERAstar FSX The reading conditions are the followings for PHERAstar FSX:
A 384-microtiter plate (MTP), containing 20 test compounds in eight-points dose response, is prepared. Test compounds dose response curves are prepared in automation in 100% DMSO in a CyBio Felix, starting from a DMSO stock solution of 10 mM. To obtain the eight-points dose-response curve, a serial dilution protocol in 100% DMSO is performed for each compound by using a 96 MTP as a support. 20 μL of the 10 mM stock solutions are transferred in row A of a 96 MTP U-bottom from column 2 to 11 for a total of 10 compounds/plate. Starting from the 10 mM stock, serial dilutions across rows, from A to B and proceeding up to H, are performed for each compound by transferring 6.3 μL of the more concentrated fluid in 13.7 μL of 100% DMSO.
In order to generate duplicate data points each well of the 96 MTP is then replicated into two wells of a 384 MTP plate for each compound and for each concentration to be tested. The 384 MTP compound plate is used as source plate in a “mother to child” process with a CyBi®-Well dispenser in which 1 μL of compound is moved into a destination plate pre-filled with 24 μL of reaction buffer, obtaining 2× concentrated compound solution.
Genedata Screener® 17.0 was used for data analysis. In the implemented workflow, the following calculations were conducted: • Calculate the Response Value (KRV) from the respective original data as follow:
HTRF Assay: Ratio=665 nm_FRET/620 nm_Ab*10000 • Calculate the % Inhibition of the compound (Inhibitory effect). KRV was normalized versus Neutral Controls and Inhibitor Controls (JNJ7706621) to obtain Activity % according to the following formula:
Activity %=−100*(x−<Neutral Control>)/(<Inhibitor Control>−<Neutral Control>) […]
In general terms: Time-resolved FRET reads energy transfer from a long-lived donor to a nearby acceptor.
Take `CS(=O)(=O)N1CCC(Nc2ncc3cc(CO)c(=O)n(CCCS(=O)(=O)n4cnc(C5CC5)n4)c3n2)CC1` [Compound 300]: the pIC50 was more than 5.00.

With `CC(C)c1ncn(S(=O)(=O)c2ccc(NC(=O)Cn3c(=O)ccc4cnc(NC5CCN(S(C)(=O)=O)CC5)nc43)cc2)n1` [Compound 255], the pIC50 was more than 5.00.

For `CS(=O)(=O)N1CCC(Nc2ncc3cc(CCO)c(=O)n(CCCS(=O)(=O)n4cnc(C5CC5)n4)c3n2)CC1` [Compound 276], the pIC50 was more than 5.00.

For the molecule `O=C(Cn1c(=O)ccc2cnc(NC3CCOC3)nc21)Nc1ccc(S(=O)(=O)n2cnc(C3CC3)n2)cc1` (centres unmarked) [Compound 275], the pIC50 is more than 5.00.

As for `CS(=O)(=O)N1CCC(Nc2ncc3ccc(=O)n(CCOCCCS(=O)(=O)n4cncn4)c3n2)CC1` [Compound 231], the pIC50 is more than 5.00.

With `CS(=O)(=O)N1CCC(Nc2ncc3cc(Cl)c(=O)n(CCCS(=O)(=O)n4cnc(C5CC5)n4)c3n2)CC1` [Compound 286], the pIC50 is more than 5.00.

With `O=c1ccc2cnc(NC3CC(F)(F)C3)nc2n1CCCS(=O)(=O)n1cnc(C2CC2)n1` [Compound 263], the pIC50 is more than 5.00.

Consider `CS(=O)(=O)N1CCC(Nc2ncc3ccc(=O)n(CCCS(=O)(=O)n4cnc(-c5ccccc5)n4)c3n2)CC1` [Compound 246], for which the pIC50 was more than 5.00.

For the molecule `CS(=O)(=O)N1CCC(Nc2ncc3ccc(=O)n(Cc4ccc(S(=O)(=O)n5cncn5)cc4)c3n2)CC1` [Compound 241], the pIC50 is more than 5.00.

Consider `O=C(Cn1c(=O)ccc2cnc(NCC3CCCCC3)nc21)Nc1ccc(S(=O)(=O)n2cnc(C3CC3)n2)cc1` [Compound 282], for which the pIC50 is less than 3.70.

As to `CNc1ncc2ccc(=O)n(CC(=O)Nc3ccc(S(=O)(=O)n4cncn4)cc3)c2n1` [Compound 247], the pIC50 is more than 5.00.

As to `CS(=O)(=O)N1CCC(Nc2ncc3ccc(=O)n(Cc4ccc(S(=O)(=O)n5cnc(-c6ccccc6)n5)cc4)c3n2)CC1` [Compound 242], the pIC50 is more than 5.00.

With `CNc1ncc2ccc(=O)n(CC(=O)Nc3ccc(S(=O)(=O)n4cnc(C5CC5)n4)cc3)c2n1` [Compound 248], the pIC50 is more than 5.00.

`CC(C(=O)Nc1ccc(S(=O)(=O)n2cnc(-c3ccccc3)n2)cc1)n1c(=O)ccc2cnc(NC3CCN(S(C)(=O)=O)CC3)nc21` (centres unmarked) [Compound 293]: the pIC50 is more than 5.00.

As to `Cc1cc(NC(=O)Cn2c(=O)ccc3cnc(NC4CCN(S(C)(=O)=O)CC4)nc32)ccc1S(=O)(=O)n1cncn1` [Compound 237], the pIC50 is more than 5.00.

Turning to `Cc1cc(S(=O)(=O)n2cncn2)ccc1NC(=O)Cn1c(=O)ccc2cnc(NC3CCN(S(C)(=O)=O)CC3)nc21` [Compound 250], the pIC50 was more than 5.00.

`O=C(Cn1c(=O)ccc2cnc(NC3CC3)nc21)Nc1ccc(S(=O)(=O)n2cnc(C3CC3)n2)cc1` [Compound 283]: the pIC50 is more than 5.00.

As for `O=c1ccc2cnc(NCC3CCCCC3)nc2n1CCCS(=O)(=O)n1cnc(C2CC2)n1` [Compound 268], the pIC50 was less than 3.70.

For the molecule `CC(C)CNc1ncc2ccc(=O)n(CC(=O)Nc3ccc(S(=O)(=O)n4cnc(C5CC5)n4)cc3)c2n1` [Compound 292], the pIC50 was less than 3.70.

For the molecule `CS(=O)(=O)N1CCC(Nc2ncc3cc(C(F)F)c(=O)n(CCOC(=O)c4ccc(S(=O)(=O)n5cnc(C6CC6)n5)cc4)c3n2)CC1` [Compound 227], the pIC50 is more than 5.00.

As to `O=C(Cn1c(=O)ccc2cnc(NCC3CC3)nc21)Nc1ccc(S(=O)(=O)n2cnc(C3CC3)n2)cc1` [Compound 278], the pIC50 is less than 3.70.

With `CC(C)CNc1ncc2ccc(=O)n(CCCS(=O)(=O)n3cnc(C4CC4)n3)c2n1` [Compound 269], the pIC50 is more than 5.00.

Consider `Cc1cc2cnc(NC3CCN(S(C)(=O)=O)CC3)nc2n(CCCS(=O)(=O)n2cncn2)c1=O` [Compound 298], for which the pIC50 was more than 5.00.

For `COCCc1cc2cnc(NC3CCN(S(C)(=O)=O)CC3)nc2n(CCCS(=O)(=O)n2cnc(C3CC3)n2)c1=O` [Compound 288], the pIC50 is more than 5.00.

As to `CS(=O)(=O)N1CCC(Nc2ncc3cc(CO)c(=O)n(CCCS(=O)(=O)n4cncn4)c3n2)CC1` [Compound 296], the pIC50 is more than 5.00.

On to `CS(=O)(=O)N1CCC(Nc2ncc3ccc(=O)n(CC(=O)NCc4ccc(S(=O)(=O)n5cncn5)cc4)c3n2)CC1` [Compound 236], for which the pIC50 is more than 5.00.

Take `O=C(Cn1c(=O)ccc2cnc(NC3CCCCCC3)nc21)Nc1ccc(S(=O)(=O)n2cnc(C3CC3)n2)cc1` [Compound 295]: the pIC50 was less than 3.70.

Turning to `CS(=O)(=O)N1CCC(Nc2ncc3ccc(=O)n(CC(=O)Nc4ccc(S(=O)(=O)n5cnc(CO)n5)cc4)c3n2)CC1` [Compound 259], the pIC50 is more than 5.00.

Regarding `CS(=O)(=O)N1CCC(Nc2ncc3ccc(=O)n(CC(=O)Nc4ccc(S(=O)(=O)n5cnc(C6CCC6)n5)cc4)c3n2)CC1` [Compound 258], the pIC50 is less than 3.70.

`O=C(Cn1c(=O)ccc2cnc(NC3CC(F)(F)C3)nc21)Nc1ccc(S(=O)(=O)n2cnc(C3CC3)n2)cc1` [Compound 281]: the pIC50 was more than 5.00.

As for `CCOC(=O)Cc1ncn(S(=O)(=O)c2ccc(NC(=O)Cn3c(=O)ccc4cnc(NC5CCN(S(C)(=O)=O)CC5)nc43)cc2)n1` [Compound 260], the pIC50 was more than 5.00.

As to `Cc1cc2cnc(NC3CCN(S(C)(=O)=O)CC3)nc2n(CCCS(=O)(=O)n2cnc(C3CC3)n2)c1=O` [Compound 289], the pIC50 was more than 5.00.

In the case of `CS(=O)(=O)N1CCC(Nc2ncc3ccc(=O)n(CC(=O)Nc4ccc(S(=O)(=O)n5cncn5)cc4)c3n2)CC1` [Compound 228], the pIC50 is more than 5.00.

Take `CCOCc1cc2cnc(NC3CCN(S(C)(=O)=O)CC3)nc2n(CCCS(=O)(=O)n2cnc(C3CC3)n2)c1=O` [Compound 261]: the pIC50 is 4.00 to 5.00.

Take `CS(=O)(=O)N1CCC(Nc2ncc3ccc(=O)n(CCS(=O)(=O)n4cncn4)c3n2)CC1` [Compound 291]: the pIC50 was more than 5.00.

In the case of `CS(=O)(=O)N1CCC(Nc2ncc3ccc(=O)n(CCCS(=O)(=O)n4cnc(C5CC5)n4)c3n2)CC1` [Compound 245], the pIC50 is more than 5.00.

As for `Cc1cc(S(=O)(=O)n2cnc(C3CC3)n2)ccc1NC(=O)Cn1c(=O)ccc2cnc(NC3CCN(S(C)(=O)=O)CC3)nc21` [Compound 251], the pIC50 is more than 5.00.

On to `CS(=O)(=O)N1CCC(Nc2ncc3ccc(=O)n(CCOCCCS(=O)(=O)n4cnc(C5CC5)n4)c3n2)CC1` [Compound 233], for which the pIC50 is more than 5.00.

Turning to `O=c1ccc2cnc(NCC3CC3)nc2n1CCCS(=O)(=O)n1cnc(C2CC2)n1` [Compound 266], the pIC50 is 4.00 to 5.00.

In the case of `CS(=O)(=O)N1CCC(Nc2ncc3ccc(=O)n(CCOCCCS(=O)(=O)n4cnc(-c5ccccc5)n4)c3n2)CC1` [Compound 230], the pIC50 is 4.00 to 5.00.

As to `CC(C)N1CCC(Nc2ncc3ccc(=O)n(CCCS(=O)(=O)n4cnc(C5CC5)n4)c3n2)CC1` [Compound 277], the pIC50 was less than 3.70.

On to `CS(=O)(=O)N1CCC(Nc2ncc3cc(C(F)F)c(=O)n(CC(=O)Nc4ccc(S(=O)(=O)n5cnc(C6CC6)n5)cc4)c3n2)CC1` [Compound 234], for which the pIC50 was more than 5.00.

In the case of `CCOCc1cc2cnc(NC3CCN(S(C)(=O)=O)CC3)nc2n(CCCS(=O)(=O)n2cncn2)c1=O` [Compound 265], the pIC50 was 4.00 to 5.00.

`O=C(Cn1c(=O)ccc2cnc(NC3CCOCC3)nc21)Nc1ccc(S(=O)(=O)n2cnc(C3CC3)n2)cc1` [Compound 279]: the pIC50 was more than 5.00.
